{"source": "patent US20220117964A1", "about": "“COMBINATION OF FAK INHIBITOR AND BTK INHIBITOR FOR TREATING A DISEASE” (ASCENTAGE PHARMA (SUZHU) CO., LTD., priority 2019, published 2022)", "key": {"[1]": {"system": "phosphorylated-FAK (p-FAK, Tyr397)", "test": "Western blot, KYSE-150 and KYSE-520 cells", "format": "cell-based", "conditions": "KYSE-150 (1 μM Compound 5, 1 μM Ibrutinib) and KYSE-520 (1 μM Compound 5, 0.5 μM Ibrutinib), 24 hours", "protocol": "(§1) The cells were lysed on ice with 1× cell lysis buffer containing 1% protease inhibitor (PMSF) and 1% phosphokinase inhibitor for 30 minutes, centrifuged at 12000 rpm and 4° C. for 15 minutes, and the supernatant protein lysate was collected. The protein concentration was measured by BCA protein concentration detection kit. The cell protein lysates (20 to 50 μg) were separated using 8-12% SDS-PAGE electrophoresis. The separated proteins were transferred to a PVDF membrane. The PVDF membrane was blocked with 5% BSA buffer at room temperature for 30 minutes to 1 hour, and then incubated overnight on a 4° C. shaker with 1× TBST containing primary antibody. The redundant primary antibody was eluted, and the membrane was washed 3 times with 1× TBST, 5 to 10 minutes for each time. The protein band membrane was incubated with horseradish peroxidase-labeled secondary antibody dilution for 1 hour at room temperature, and the membrane was washed 3 times with 1× TBST, 5 to 10 minutes for each time. The signal generation and detection were performed using an ECL chemiluminescence ultrasensitive colorimetric kit and a chemiluminescence imaging system. The primary antibodies used in this experiment included: EGFR, (CST, Cat.4267S); phosphorylated EGFR (p-EGFR (Tyr1068)), (CST, Cat.3777T); FAK, (CST, Cat.3285S); phosphorylated FAK (p-FAK (Tyr397)), (CST, Cat.8556T); AKT, (CST, Cat.4685S); phosphorylated p-AKT (Ser473), (CST, Cat.9271S); ERK, (CST,Cat.4695S); phosphorylated ERK (p-ERK (Thr202/Tyr204)), (CST, Cat.4370T); phosphorylated MEK (p-MEK (Ser217/221)), (CST, Cat.9121S);BTK, (Immunoway, Cat. YM1294); C-Myc, (CST, Cat. 5605); phosphorylated C-Myc, (CST, Cat. 13748); Cyclin B1 (CST, Cat. 12231S), Cylin D1 (CST, Cat.2978S), GAPDH (ABGENT, Cat.AM1020B). The secondary antibodies used in this experiment included goat-anti-rabbit secondary antibody (Senta, Cat. Sc-2004) and goat-anti-mouse secondary antibody (Senta, Cat. Sc-2005).\n(§2) (1) The experimental method was as described in the items (1), (2), (5) of Example 2. […] The changes in signaling pathway of related proteins were determined by Western blotting assay."}, "YES-2 cells": {"system": "YES-2 cells", "test": "Colony formation assay", "format": "cell-based", "conditions": "0.5 μM Compound 5, 0.25 μM Ibrutinib or both, 12 days", "protocol": "(§3) Growth inhibition was detected by colony formation assay. ESCC cells were inoculated in 6-well plates at about 500 cells/well, and treated with different inhibitors or DMSO, and then replaced with fresh medium containing with different inhibitors or DMSO every 3 to 4 days. The cells were stained with crystal violet (V5265, Sigma, St Louis, Mo., USA) on day 12. After washing twice with PBS, the cells were fixed with 1% paraformaldehyde and incubated for 15 minutes at room temperature. The cells were then washed twice with PBS and stained with 0.5% crystal violet for 15 minutes at room temperature.\nas §2"}, "[2]": {"system": "phosphorylated-AKT (p-AKT, Ser397)", "test": "Western blot, KYSE-150 and KYSE-520 cells", "format": "cell-based", "conditions": "KYSE-150 (1 μM Compound 5, 1 μM Ibrutinib) and KYSE-520 (1 μM Compound 5, 0.5 μM Ibrutinib), 24 hours", "protocol": "The cells were lysed on ice with 1× cell lysis buffer containing 1% protease inhibitor (PMSF) and 1% phosphokinase inhibitor for 30 minutes, centrifuged at 12000 rpm and 4° C. for 15 minutes, and the supernatant protein lysate was collected. The protein concentration was measured by BCA protein concentration detection kit. The cell protein lysates (20 to 50 μg) were separated using 8-12% SDS-PAGE electrophoresis. The separated proteins were transferred to a PVDF membrane. The PVDF membrane was blocked with 5% BSA buffer at room temperature for 30 minutes to 1 hour, and then incubated overnight on a 4° C. shaker with 1× TBST containing primary antibody. The redundant primary antibody was eluted, and the membrane was washed 3 times with 1× TBST, 5 to 10 minutes for each time. The protein band membrane was incubated with horseradish peroxidase-labeled secondary antibody dilution for 1 hour at room temperature, and the membrane was washed 3 times with 1× TBST, 5 to 10 minutes for each time. The signal generation and detection were performed using an ECL chemiluminescence ultrasensitive colorimetric kit and a chemiluminescence imaging system. […]\nas §2"}, "KYSE-150 cells": {"system": "KYSE-150 cells", "test": "Colony formation assay", "format": "cell-based, human", "conditions": "1 μM Compound 5, 1 μM Ibrutinib or both, 12 days", "protocol": "as §3, §2"}, "[3]": {"system": "phosphorylated EGFR (p-EGFR, Tyr1068)", "test": "Western blot, KYSE-150 and KYSE-520 cells", "format": "cell-based", "conditions": "KYSE-150 (1 μM Compound 5, 1 μM Ibrutinib) and KYSE-520 (1 μM Compound 5, 0.5 μM Ibrutinib), 24 hours", "protocol": "as §1, §2"}, "[4]": {"system": "phosphorylated MEK (p-MEK, Ser217/221)", "test": "Western blot, KYSE-150 and KYSE-520 cells", "format": "cell-based", "conditions": "KYSE-150 (1 μM Compound 5, 1 μM Ibrutinib) and KYSE-520 (1 μM Compound 5, 0.5 μM Ibrutinib), 24 hours", "protocol": "as §1, §2"}, "Cyclin D1": {"system": "Cyclin D1", "test": "Western blot, KYSE-150 and KYSE-520 cells", "format": "cell-based", "conditions": "KYSE-150 (1 μM Compound 5, 1 μM Ibrutinib) and KYSE-520 (1 μM Compound 5, 0.5 μM Ibrutinib), 24 hours", "protocol": "as §1, §2"}, "[5]": {"system": "phosphorylated ERK (p-ERK, Thr202/Tyr204)", "test": "Western blot, KYSE-150 and KYSE-520 cells", "format": "cell-based", "conditions": "KYSE-150 (1 μM Compound 5, 1 μM Ibrutinib) and KYSE-520 (1 μM Compound 5, 0.5 μM Ibrutinib), 24 hours", "protocol": "as §1, §2"}}}
{"molecule": "Cc1cc(Nc2ncc(Cl)c(Nc3ccccc3S(=O)(=O)C(C)C)n2)c(OC(C)C)cc1C1=CCN(C2CCOCC2)CC1", "note": "[Compound 5, 5-chloro-N^2-(2-isopropoxy-5-methyl-4-(1-(tetrahydro-2H-pyran-4-yl)-1,2,3,6-tetrahydropyridin-4-yl)phenyl)-N^4-(2-(isopropylsulfonyl)phenyl)pyrimidine-2,4-diamine]", "values": [{"measurement": "protein expression level of phosphorylated-FAK (p-FAK, Tyr397)", "setting": "[1]", "result": "significantly decrease"}, {"measurement": "inhibitory effect on cell clone formation", "setting": "YES-2 cells", "result": "stronger inhibitory effects"}, {"measurement": "protein expression level of phosphorylated-AKT (p-AKT, Ser397)", "setting": "[2]", "result": "significantly decrease"}, {"measurement": "inhibitory effect on cell clone formation", "setting": "KYSE-150 cells", "result": "stronger inhibitory effects"}]}
{"molecule": "C=CC(=O)N1CCC[C@@H](n2nc(-c3ccc(Oc4ccccc4)cc3)c3c(N)ncnc32)C1", "note": "[Ibrutinib]", "values": [{"measurement": "protein expression level of phosphorylated EGFR (p-EGFR, Tyr1068)", "setting": "[3]", "result": "significantly decrease"}, {"measurement": "protein expression level of phosphorylated MEK (p-MEK, Ser217/221)", "setting": "[4]", "result": "significantly decrease"}, {"measurement": "protein expression level of Cyclin D1", "setting": "Cyclin D1", "result": "significantly decrease"}, {"measurement": "protein expression level of phosphorylated ERK (p-ERK, Thr202/Tyr204)", "setting": "[5]", "result": "significantly decrease"}]}
